Earlier results on one compound are cited in patent publication US11089780B2, “Pendimethanlin microcapsules with a shell made of tetramethylxylylene diisocyanate and a polyamine with at least three amine groups” (BASF SE, priority 2015, dated 2021).

Molecules are shown by their SMILES.

The conditions of the series: at 25° C.

On to `CCC(CC)Nc1c([N+](=O)[O-])cc(C)c(C)c1[N+](=O)[O-]` [Pendimethalin, 3,4-dimethyl-2,6-dinitro-N-pentan-3-yl-aniline], for which the Vapor pressure entry was “about 2 mPa”.
